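Values below derive from 48-hour exposures of cells grown in 96-well plates, with endpoints linearly interpolated between the two concentrations bracketing the appropriate inhibition level. Here, GI50 denotes the concentration required for 50% inhibition of growth.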 Activity calls are given as the source filed them. Cut-off read from the data, not from the text of the source: active = GI50 up to about 1.1 µM and inactive = higher.
Columns and labels:
Experiment in all cases: NCI-60 cell line screen, 48 h
HCC 2998 = system: HCC 2998
M19-MEL = system: M19-MEL
SNB-75 = system: SNB-75
HOP-62 = system: HOP-62
CCRF-CEM = system: CCRF-CEM
CAKI-1 = system: CAKI-1
M14 = system: M14
IGROV-1 = system: IGROV-1
DLD-1 = system: DLD-1
SF-295 = system: SF-295
HL-60 = system: HL-60
SF-268 = system: SF-268
NCI-H460 = system: NCI-H460
SW-620 = system: SW-620
RXF 393 = system: RXF 393
NCI-H226 = system: NCI-H226

Measured: GI50

CNS(=O)(=O)NNS(=O)(=O)c1ccc(OC)cc1
inactive: HCC 2998 > 100 µM | M19-MEL > 100 µM | SNB-75 > 100 µM | HOP-62 > 100 µM | CCRF-CEM > 100 µM | CAKI-1 > 100 µM | M14 > 100 µM | IGROV-1 > 100 µM | DLD-1 > 100 µM | SF-295 > 100 µM | HL-60 > 100 µM | SF-268 > 100 µM | NCI-H460 > 100 µM | SW-620 > 100 µM | RXF 393 > 100 µM

C#CCC(O)c1ccccc1C(O)CC#C (stereo not given)
inactive: HCC 2998 89.3 µM | M19-MEL > 100 µM | SNB-75 28.2 µM | HOP-62 > 100 µM | CCRF-CEM > 100 µM | CAKI-1 65.2 µM | M14 > 100 µM | IGROV-1 > 100 µM | DLD-1 > 100 µM | SF-295 > 100 µM | HL-60 > 100 µM | NCI-H460 > 100 µM | SW-620 > 100 µM | RXF 393 29 µM

O=C(/C=C/c1ccccc1)CC1OC(=O)c2ccccc21 (stereo not given)
inactive: NCI-H226 22.5 µM | HCC 2998 > 100 µM | M19-MEL 45.8 µM | SNB-75 45.5 µM | HOP-62 > 100 µM | CCRF-CEM 32.8 µM | M14 > 100 µM | IGROV-1 80.7 µM | DLD-1 > 100 µM | SF-295 85.5 µM | HL-60 28.1 µM | SF-268 > 100 µM | NCI-H460 > 100 µM | SW-620 84.3 µM | RXF 393 > 100 µM

N#CC(C(=O)C(N)=O)c1ccccc1Cl (stereo not given)
inactive: NCI-H226 > 100 µM | HCC 2998 > 100 µM | M19-MEL > 100 µM | SNB-75 > 100 µM | CCRF-CEM > 100 µM | CAKI-1 > 100 µM | M14 > 100 µM | IGROV-1 > 100 µM | DLD-1 > 100 µM | SF-295 > 100 µM | HL-60 > 100 µM | SF-268 > 100 µM | NCI-H460 > 100 µM | SW-620 > 100 µM | RXF 393 > 100 µM

COc1cc(-c2c(C)c(C)nc(OC)c2C#N)cc(OC)c1OC
inactive: NCI-H226 24.9 µM | HCC 2998 > 100 µM | M19-MEL > 100 µM | SNB-75 44.2 µM | HOP-62 > 100 µM | CCRF-CEM > 100 µM | M14 > 100 µM | IGROV-1 > 100 µM | DLD-1 > 100 µM | SF-295 53.6 µM | HL-60 24.4 µM | SF-268 > 100 µM | NCI-H460 > 100 µM | SW-620 > 100 µM | RXF 393 44.2 µM

CCOP(=O)(OCC)OC(C#N)c1ccc(-c2ccccc2)cc1 (stereo not given)
inactive: NCI-H226 31.6 µM | HCC 2998 28.5 µM | M19-MEL 21.9 µM | SNB-75 27.7 µM | HOP-62 34.5 µM | CCRF-CEM 22.4 µM | CAKI-1 22.4 µM | M14 18.4 µM | IGROV-1 36.3 µM | DLD-1 18.4 µM | SF-295 70.6 µM | HL-60 18.4 µM | SF-268 18.2 µM | NCI-H460 20.5 µM | SW-620 13.7 µM

Cc1cc(N(CCC#N)CCC#N)ccc1/C=C1N=C(/C=C\c2ccccc2)N(NC(=O)CC(=O)Nc2ccccc2Cl)C\1=O
inactive: NCI-H226 > 100 µM | M19-MEL > 100 µM | SNB-75 > 100 µM | HOP-62 > 100 µM | CCRF-CEM > 100 µM | CAKI-1 > 100 µM | M14 > 100 µM | IGROV-1 > 100 µM | DLD-1 > 100 µM | SF-295 > 100 µM | HL-60 > 100 µM | SF-268 > 100 µM | NCI-H460 > 100 µM | SW-620 > 100 µM

COCCN1C2=CCCCC2=Nc2c1nc(N)[nH]c2=O
inactive: NCI-H226 > 100 µM | HCC 2998 > 100 µM | M19-MEL > 100 µM | SNB-75 > 100 µM | HOP-62 > 100 µM | CCRF-CEM > 100 µM | CAKI-1 > 100 µM | M14 > 100 µM | IGROV-1 > 100 µM | DLD-1 > 100 µM | SF-295 > 100 µM | HL-60 > 100 µM | SF-268 > 100 µM | NCI-H460 > 100 µM | RXF 393 > 100 µM

CCCC1N2CCCCC2[C@@H]2c3[nH]c4ccccc4c3CCN12 (stereo not given in full)
inactive: HCC 2998 > 100 µM | M19-MEL > 100 µM | SNB-75 32.3 µM | HOP-62 > 100 µM | CCRF-CEM > 100 µM | CAKI-1 > 100 µM | M14 > 100 µM | IGROV-1 > 100 µM | DLD-1 > 100 µM | SF-295 > 100 µM | HL-60 > 100 µM | SF-268 > 100 µM | NCI-H460 > 100 µM | SW-620 > 100 µM | RXF 393 > 100 µM

N#CC(C#N)c1ccc(C(=O)N2CCC[C@H]2CO)cc1
inactive: HCC 2998 > 100 µM | M19-MEL > 100 µM | SNB-75 > 100 µM | HOP-62 > 100 µM | CCRF-CEM > 100 µM | CAKI-1 > 100 µM | M14 > 100 µM | IGROV-1 > 100 µM | DLD-1 > 100 µM | SF-295 > 100 µM | HL-60 > 100 µM | SF-268 > 100 µM | NCI-H460 > 100 µM | SW-620 > 100 µM | RXF 393 > 100 µM

CC1(C)COC(c2cccnc2/C=N/O)=N1
inactive: NCI-H226 > 100 µM | M19-MEL > 100 µM | SNB-75 > 100 µM | HOP-62 > 100 µM | CCRF-CEM > 100 µM | CAKI-1 > 100 µM | M14 > 100 µM | IGROV-1 > 100 µM | DLD-1 > 100 µM | SF-295 > 100 µM | HL-60 > 100 µM | SF-268 > 100 µM | NCI-H460 > 100 µM | SW-620 67.8 µM | RXF 393 > 100 µM

c1ccc(SC2(Sc3ccccc3)CCCC2)cc1
inactive: M19-MEL > 100 µM | SNB-75 > 100 µM | HOP-62 > 100 µM | CCRF-CEM > 100 µM | CAKI-1 > 100 µM | M14 > 100 µM | DLD-1 > 100 µM | SF-295 > 100 µM | HL-60 > 100 µM | SF-268 > 100 µM | NCI-H460 > 100 µM | SW-620 > 100 µM | RXF 393 > 100 µM

CC(=O)OC1CC2(c3ccccc3)C(=O)c3ccccc3N2O1 (stereo not given)
inactive: NCI-H226 > 100 µM | HCC 2998 > 100 µM | M19-MEL > 100 µM | SNB-75 > 100 µM | HOP-62 > 100 µM | CCRF-CEM > 100 µM | M14 > 100 µM | IGROV-1 > 100 µM | DLD-1 > 100 µM | SF-295 > 100 µM | HL-60 > 100 µM | SF-268 > 100 µM | SW-620 > 100 µM | RXF 393 > 100 µM
